Reference: patent publication US8455479B2, “Heterocyclic compounds” (Panacea Biotec Limited, priority 2008, dated 2013)
pIC50: −log10 of the molar value.

What was measured:
DPP-IV = DPP-IV (UniProt P27487); experiment: In-vitro DPP-IV assay (cleavage of pNA from Gly-Pro-pNA); format: biochemical, porcine kidney or human recombinant; details: for pIC50: DPP-IV; for % Inhibition: DPP-IV inhibition at 100 nM
Experimental: Protocol for In-Vitro DPP-IV Assay
DPP-IV activity was determined by the rate of cleavage of p-nitro aniline (pNA) from synthetic substrate Glycine-Proline-pNA. The assay was conducted by adding 1 μg of porcine kidney or human recombinant DPP-IV enzyme (Sigma Aldrich, USA) in 100 μL of the assay buffer (100 mM Tris, pH 7.4, 140 mM NaCl, 10 mM KCl, 1% BSA) to 96 well Cellstar flat bottom microtitre plates (Greiner Bio-one, Germany). The reaction was initiated by adding 80 μl of 500 μM substrate Gly-Pro-pNA. The incubation was carried out in the kinetic mode at 30° C. for 30 min. Absorbance was measured using Synergy HT Biotek Multiplate reader at 410 nm. Test compounds and solvent controls were added as 10 μL additions. A standard curve of free p-nitro, aniline (pNA) was generated using 0-2000 μM pNA in the assay buffer. In addition DPP-IV activity was also determined by using Fluorogenic substrate (Gly-Pro-AMC) using human recombinant DPP-IV enzyme (Sigma Aldrich USA).
Test compounds dissolved in DMSO at 9-10 different concentrations were tested in triplicates along with the solvent control and blank samples. % age inhibition was calculated at each concentration with respect to the solvent control (no test compound added). IC50 values were calculated from 3 experiments using the Graph Pad Prism or Sigma Stat software.

C57BL/6J mice = experiment: Oral glucose tolerance test (OGTT) in C57BL/6J mice; format: in vivo; details: for ED50 (mg/kg p.o.): OGTT in C57BL/6J mice; for % Reduction in glucose excursion: OGTT in C57BL/6J mice at 3 mg/kg body weight, glucose 2 g/kg p.o., glucose AUC
Experimental: Oral Glucose Tolerance Test (OGTT) in C57BL/6J Mice
The oral glucose tolerance test (OGTT) measures the body's ability to use glucose that is the body's main source of energy. OGTT serves as a primary in-vivo screen to select efficacious test compounds for their antidiabetic activity. Compounds were formulated in 0.25% CMC with a drop of tween 80 (optional). C57BL/6J male mice (8-9 weeks) were fasted overnight and randomized into different groups (n=6) on body weigh basis. At T−15 min blood was collected from each group for glucose estimation. At T0 compounds or vehicle were administered with simultaneous administration of glucose (2 g/kg p.o.) to each group. RO water was administered to no glucose control group. Blood samples were collected from retro-orbital plexus at 15, 30, 60 and 120 min post dosing for glucose estimation. The AUC for glucose was calculated to get the reduction in glucose excursion.

Row | pIC50 (DPP-IV) | SMILES | % Inhibition (DPP-IV) | ED50 (mg/kg p.o.) (C57BL/6J mice) | % Reduction in glucose excursion (C57BL/6J mice) [%]
1 | 7.00 to 9.00 | N[C@@H](CC(=O)N1CC(=O)Nc2cc(F)ccc2C1)Cc1cc(F)c(F)cc1F [Compound 3] | Y (Y: 50-100% DPP-IV inhibition at 100 nM) | 0.7 | 37
2 | 7.00 to 9.00 | N[C@@H](CC(=O)N1CC(=O)N(CC(=O)NC2CC2)c2cc(F)ccc2C1)Cc1cc(F)c(F)cc1F [Compound 38] | Y (Y: 50-100% DPP-IV inhibition at 100 nM) |  | 

Second part, the compound before the results:

Row | SMILES | pIC50 (DPP-IV) | % Inhibition (DPP-IV) | ED50 (mg/kg p.o.) (C57BL/6J mice) | % Reduction in glucose excursion (C57BL/6J mice) [%]
3 | N[C@@H](CC(=O)N1CC(=O)Nc2ccccc2C1)Cc1cc(F)c(F)cc1F [Compound 2] | 7.00 to 9.00 | Y (Y: 50-100% DPP-IV inhibition at 100 nM) | 0.4 | 51
4 | CN(C(=O)CN1C(=O)CN(C(=O)C[C@H](N)Cc2cc(F)c(F)cc2F)Cc2ccccc21)C1CC1 [Compound 39] |  | Y (Y: 50-100% DPP-IV inhibition at 100 nM) |  | 
5 | N[C@@H](CC(=O)N1Cc2ccccc2-n2ccnc2C1)Cc1cc(F)c(F)cc1F [Compound 95] | 7.00 to 9.00 | Y (Y: 50-100% DPP-IV inhibition at 100 nM) |  | 
